Experiments:
[1] = target: T1, Progesterone Receptor PR-B (Homo sapiens, UniProt P06401); experiment: Antagonism of Progesterone Receptor PR-B, transactivation assay; assay type: cell-based; settings: PR-B transactivation assay as in WO 02/054064; for IC50: read-out: Antagonistic activity IC50
T1 construct: expressed in transfected cells; From own knowledge of the cited Fuhrmann et al. 2000: SK-N-MC cells stably transfected with PR-B and an MMTV-luciferase reporter
T1 sequence (P06401 1-933): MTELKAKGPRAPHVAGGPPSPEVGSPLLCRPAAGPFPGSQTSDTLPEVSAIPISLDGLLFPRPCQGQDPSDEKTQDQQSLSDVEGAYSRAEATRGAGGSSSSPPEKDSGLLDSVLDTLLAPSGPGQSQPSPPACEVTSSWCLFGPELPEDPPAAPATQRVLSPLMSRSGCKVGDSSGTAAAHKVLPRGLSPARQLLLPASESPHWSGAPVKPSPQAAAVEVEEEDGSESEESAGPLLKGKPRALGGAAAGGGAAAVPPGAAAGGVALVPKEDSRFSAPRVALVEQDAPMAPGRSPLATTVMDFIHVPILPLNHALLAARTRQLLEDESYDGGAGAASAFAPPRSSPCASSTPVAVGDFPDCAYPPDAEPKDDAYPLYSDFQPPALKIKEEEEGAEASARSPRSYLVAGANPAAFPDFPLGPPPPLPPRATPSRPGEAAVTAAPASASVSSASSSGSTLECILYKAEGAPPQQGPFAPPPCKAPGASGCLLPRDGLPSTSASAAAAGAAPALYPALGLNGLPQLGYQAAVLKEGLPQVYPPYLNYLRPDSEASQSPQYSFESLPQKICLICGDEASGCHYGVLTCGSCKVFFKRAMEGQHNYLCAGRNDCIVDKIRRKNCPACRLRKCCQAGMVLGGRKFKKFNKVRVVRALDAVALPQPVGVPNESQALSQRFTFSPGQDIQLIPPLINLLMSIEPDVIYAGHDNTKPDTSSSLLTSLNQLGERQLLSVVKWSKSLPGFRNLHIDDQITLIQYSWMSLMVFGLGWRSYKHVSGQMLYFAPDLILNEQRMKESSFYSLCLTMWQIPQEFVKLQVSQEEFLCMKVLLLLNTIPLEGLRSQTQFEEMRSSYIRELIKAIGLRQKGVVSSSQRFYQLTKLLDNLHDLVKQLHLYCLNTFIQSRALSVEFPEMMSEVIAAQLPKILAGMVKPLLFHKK
Experimental: Antagonism of Progesterone Receptor PR-B
The transactivation assay is performed as described in WO 02/054064.

[2] = target: T1, Progesterone Receptor PR-B; experiment: Agonism of Progesterone Receptor PR-B, transactivation assay; assay type: cell-based; settings: PR-B transactivation assay as in Fuhrmann et al.
Experimental: Agonism of Progesterone Receptor PR-B
The transactivation assay is performed as described in Fuhrmann et al. (Fuhrmann, U.; Hess-Stump, H.; Cleve, A.; Neef, G.; Schwede, W.; Hoffmann, J.; Fritzemeier, K.-H., Chwalisz, K.; Journal of Medicinal Chem., 43, 26, 2000, 5010-5016).

Antagonistic activity Efficacy [1]	IC50 [1]	Agonistic activity Efficacy [2]	EC50 ([2]; read-out: Agonistic activity EC50)	Structure (SMILES)
96%	3 nM	3%	–	CCCC#CC(O)(CC1(c2cc(C(F)(F)F)ccc2F)CC1)C(=O)Nc1ccc2c(c1)COC2=O (racemic) [Example 9, rac-5-{2-Hydroxy-3-[1-(2-fluoro-5-trifluoromethylphenyl)-cyclopropyl]-2-(pentin-1-yl)-propionylamino}phthalide]
82%	4 nM	11%	2 nM	O=C1OCc2cc(NC(=O)C(O)(C#Cc3ccc(O)cc3)CC3(c4cc(C(F)(F)F)ccc4F)CC3)ccc21 (racemic) [Example 7, rac-5-{2-Hydroxy-2-[(4-hydroxyphenyl)ethinyl]-3-[1-(2-fluoro-5-trifluoromethylphenyl)-cyclopropyl]-propionylamino}phthalide]
97%	0.4 nM	2%	–	O=C1OCc2cc(NC(=O)C(O)(C#Cc3ccccc3)CC3(c4cc(C(F)(F)F)ccc4F)CC3)ccc21 (single isomer, unassigned; (-)) [Example 3b, (−)-5-{2-Hydroxy-3-[1-(2-fluoro-5-trifluoromethylphenyl)-cyclopropyl]-2-(phenylethinyl)-propionylamino}phthalide]
92%	3 nM	7%	–	O=C1OCc2cc(NC(=O)C(O)(C#CCO)CC3(c4cc(C(F)(F)F)ccc4F)CC3)ccc21 (racemic) [Example 13, rac-5-{2-Hydroxy-3-[1-(2-fluoro-5-trifluoromethylphenyl)-cyclopropyl]-2-[(3-hydroxy)propin-1-yl]-propionylamino}phthalide]

Reference: US7408060B2, “Nonsteroidal progesterone receptor modulators” (Schering AG, priority 2005, dated 2008)
